Assay results taken from patent US7790751B2, “Azinyl-3-sulfonylindazole derivatives as 5-hydroxytryptamine-6 ligands” (Wyeth LLC, priority 2005, dated 2010).
pKi: −log10 of the molar value. Structures can show the parent of a compound that is named as a salt.

Tests used:
[1] = target: human cloned 5-HT6 receptors (Homo sapiens, UniProt P50406); assay: Evaluation of 5-HT6 binding affinity of test compounds ([3H]-LSD displacement)
Sequence of human cloned 5-HT6 receptors (P50406 whole entry): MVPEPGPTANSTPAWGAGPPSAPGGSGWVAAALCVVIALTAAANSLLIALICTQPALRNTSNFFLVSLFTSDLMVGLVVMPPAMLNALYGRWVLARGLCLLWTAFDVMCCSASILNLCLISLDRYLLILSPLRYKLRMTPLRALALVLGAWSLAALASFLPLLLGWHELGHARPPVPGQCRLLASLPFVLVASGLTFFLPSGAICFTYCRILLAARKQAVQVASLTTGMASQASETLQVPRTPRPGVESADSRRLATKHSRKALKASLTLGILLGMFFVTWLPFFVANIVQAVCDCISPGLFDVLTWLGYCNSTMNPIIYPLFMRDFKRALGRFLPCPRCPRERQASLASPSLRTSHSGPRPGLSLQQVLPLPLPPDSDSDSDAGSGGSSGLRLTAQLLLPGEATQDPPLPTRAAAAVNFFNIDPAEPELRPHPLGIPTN

Structure (SMILES) | melting point | pKi [1]
O=S(=O)(c1cccc2ccccc12)c1n[nH]c2ccc(OC3CCNC3)cc12 (centres unmarked) (as salt: hydrochloride) [Example 1, 3-(Naphthalene-1-sulfonyl)-5-(pyrrolidin-3-yloxy)-1H-indazole] | 168 to 170 °C (dec.) | 
O=S(=O)(c1cccc2ccccc12)c1n[nH]c2ccc(OC3CCNCC3)cc12 (as salt: hydrochloride) [Example 6, 3-(1-Naphthylsulfonyl)-5-(piperidin-4-yloxy)-1H-indazole Hydrochloride] | 174 to 176 °C (dec.) | 
CN1CCC(Oc2ccc3[nH]nc(S(=O)(=O)c4cccc5ccccc45)c3c2)CC1 (as salt: hydrochloride) [Example 21, 5-(1-Methylpiperidin-4-yloxy)-3-(1-naphthylsulfonyl)-1H-indazole Hydrochloride] | 252 to 254 °C | 
O=S(=O)(c1cccc2ccccc12)c1n[nH]c2ccc(OCC3CCNCC3)cc12 [Example 27, 3-(1-naphthylsulfonyl)-5-(piperidin-4-ylmethoxy)-1H-indazole] | 175 to 177 °C | 7.60 to 7.96
O=S(=O)(c1cccc2ccccc12)c1n[nH]c2ccc(OCC3CCCNC3)cc12 (centres unmarked) [Example 28, 3-(1-Naphthylsulfonyl)-5-(piperidin-3-ylmethoxy)-1H-indazole] | 168 to 170 °C | 8.00 to 11.00
O=S(=O)(c1cccc2ccccc12)c1n[nH]c2ccc(OC3CCCNC3)cc12 (centres unmarked) [Example 29, 3-(1-Naphthylsulfonyl)-5-(piperidin-3-yloxy)-1H-indazole] | 178 to 180 °C | 8.00 to 11.00
O=S(=O)(c1ccc(C(F)(F)F)cc1)c1n[nH]c2ccc(NC3CCNCC3)cc12 [Example 48, N-piperidin-4-yl-3-{[4-(trifluoromethyl)phenyl]sulfonyl}-1H-indazol-5-amine] |  | 8.00 to 11.00
O=S(=O)(c1ccccc1)c1n[nH]c2ccc(NC3CCNCC3)cc12 [Example 49, 3-(phenylsulfonyl)-N-piperidin-4-yl-1H-indazol-5-amine] |  | 8.00 to 11.00
COc1ccc(S(=O)(=O)c2n[nH]c3ccc(NC4CCNCC4)cc23)cc1 [Example 50, 3-[(4-methoxyphenyl)sulfonyl]-N-piperidin-4-yl-1H-indazol-5-amine] |  | 8.00 to 11.00
Cc1cccc(S(=O)(=O)c2n[nH]c3ccc(NC4CCNCC4)cc23)c1 [Example 51, 3-[(3-methylphenyl)sulfonyl]-N-piperidin-4-yl-1H-indazol-5-amine] |  | 8.00 to 11.00
O=C(Nc1ccc2[nH]nc(S(=O)(=O)c3cccc4ccccc34)c2c1)C1CCNCC1 [Example 52, N-[3-(1-Naphthylsulfonyl)-1H-indazol-5-yl]piperidine-4-carboxamide Hydrochloride] |  | 8.00 to 11.00
O=C(Nc1ccc2c(S(=O)(=O)c3cccc4ccccc34)n[nH]c2c1)C1CCNCC1 [Example 53, N-[3-(1-Naphthylsulfonyl)-1H-indazol-6-yl]piperidine-4-carboxamide Dihydrochloride] |  | 7.46 to 7.59
O=C(Nc1cccc2c(S(=O)(=O)c3cccc4ccccc34)n[nH]c12)C1CCNCC1 [Example 54, N-[3-(1-Naphthylsulfonyl)-1H-indazol-7-yl]piperidine-4-carboxamide Dihydrochloride] |  | 7.46 to 7.59
O=C(Nc1cccc2c(S(=O)(=O)c3cccc4ccccc34)n[nH]c12)C1CCCNC1 (centres unmarked) [Example 55, N-[3-(1-Naphthylsulfonyl)-1H-indazol-7-yl]piperidine-3-carboxamide Dihydrochloride] |  | 8.00 to 11.00
